Source: patent US20080167385A1 (priority 2004, published 2008)
Entries after “also recorded” stand apart in the source; their conditions may differ.

What was measured:
[1] = target: T1, CDK4/cyclin D1 (Homo sapiens, UniProt P11802+P24385); test: CDK4/cyclin D1 kinase assay (in vitro pRb phosphorylation); type: biochemical
T1 construct: His6 (N); made in house; host or cells: CDK4: Sf9 insect cells (baculovirus); GST-pRb: E. coli BL21(DE3)
Protocol: For the 96-well format in vitro kinase assay GST-pRb was used immobilized on glutathione-Sepharose beads.
CDK4/cyclin D1 kinase assay: The reaction mixture consisted of 1 μM of CDK4 and cyclin D1, 5 μg GST-pRb, 100 mM ATP and 0.2 μCi ^32P-ATP. The kinase reaction was carried out for 10 min at 30° C., the reaction was stopped with the addition of sample buffer and after heating the sample was resolved on 10% SDS-PAGE. The aouthoradiography images were scanned and quantified using QuickScan software. The IC50 values were determined using GraFit software.

[2] = target: T1, CDK4/cyclin D1; conditions: background; cited from earlier work
[3] = target: T2, PCNA (Homo sapiens, UniProt P12004); conditions: cited from earlier work
T2 construct: made in house; host or cells: Escherichia coli BL21(DE3), pT7-PCNA

[4] = tested on: PCNA-dependent DNA replication; conditions: cited from earlier work

T1 sequence (P11802 whole entry): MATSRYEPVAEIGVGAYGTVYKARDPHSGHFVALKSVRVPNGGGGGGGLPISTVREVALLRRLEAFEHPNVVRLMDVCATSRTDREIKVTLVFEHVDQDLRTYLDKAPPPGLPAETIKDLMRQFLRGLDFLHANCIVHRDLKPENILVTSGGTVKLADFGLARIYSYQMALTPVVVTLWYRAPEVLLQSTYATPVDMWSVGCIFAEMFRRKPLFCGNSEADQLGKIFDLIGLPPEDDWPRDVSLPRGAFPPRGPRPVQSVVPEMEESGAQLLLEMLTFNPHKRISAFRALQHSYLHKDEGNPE
T1 sequence (P24385 whole entry): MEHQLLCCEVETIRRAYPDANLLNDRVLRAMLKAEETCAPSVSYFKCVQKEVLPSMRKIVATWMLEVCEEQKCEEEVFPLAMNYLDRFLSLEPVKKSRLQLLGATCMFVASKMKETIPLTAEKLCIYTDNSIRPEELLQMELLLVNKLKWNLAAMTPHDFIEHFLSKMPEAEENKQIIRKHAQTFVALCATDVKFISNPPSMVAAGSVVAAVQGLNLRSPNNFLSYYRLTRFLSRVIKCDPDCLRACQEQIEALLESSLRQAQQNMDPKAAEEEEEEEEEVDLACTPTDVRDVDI
T2 sequence (P12004 whole entry): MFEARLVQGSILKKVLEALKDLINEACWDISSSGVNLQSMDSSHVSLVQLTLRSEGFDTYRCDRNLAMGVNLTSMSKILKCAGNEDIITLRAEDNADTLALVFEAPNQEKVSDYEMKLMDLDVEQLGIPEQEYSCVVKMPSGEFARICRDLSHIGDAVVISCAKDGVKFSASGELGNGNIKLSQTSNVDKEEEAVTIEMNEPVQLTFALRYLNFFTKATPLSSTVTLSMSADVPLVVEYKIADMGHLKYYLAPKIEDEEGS

Question: Which CDK/cyclin inhibitory activity [1] does the source give for “SAVLQKKITDYFHPKK [CM peptide, hybrid containing 12 residues from the C-terminus of Pogo, flanked by 4 residues from DNA ligase I]” here?
Answer: devoid of CDK/cyclin inhibitory activity; also recorded: does not inhibit CDK function

Question: And the “inhibition of CDK function” value [2]?
Answer: unable to inhibit CDK function

Question: And the “affinity for PCNA (in words)” value [3]?
Answer: nanomolar affinity; also recorded: affinity very similar to that of the p21(141-160) peptide

Question: What about the enthalpy of binding to PCNA ([3]; isothermal calorimetry) of the same substance?
Answer: -9.52 kcal/mol

Question: And the “entropic contribution to PCNA binding” value ([3]; isothermal calorimetry)?
Answer: 0.61 cal mol^−1 ° C.^−1

Question: What about the Kd ([3]; read-out: Kd of binding to PCNA) of the same substance?
Answer: 100 nM

Question: What about the “inhibition of DNA replication in vitro (in words)” value [4] of the same substance?
Answer: potency very similar to that of p21(141-160); also recorded: efficient inhibitor

Question: With “p21D149A: site point mutant p21(141-160)D149A (KRRQTSMTAFYHSKRRLIFS; UniProt P38936 141-160, looked up, variant D149A) [reference compound]” as the substance, how does the “Ka of binding to PCNA” value ([3]; isothermal calorimetry) read?
Answer: 7.8×10^5
